Patent US12258338B2, “Modulators of the integrated stress response pathway” (EVOTEC INTERNATIONAL GMBH, priority 2019, dated 2025)
≈ marks a conversion by molar mass, not a printed value. Like-named read-outs stand apart in the source and are kept apart here.

Assays:
[1] = Thermodynamic (Equilibrium) solubility in selected buffer; assay type: physicochemical; details: for solubility: aqueous buffer, thermodynamic from solid
In short: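 Powdered compound at 1 mg/mL target in 50 mM phosphate pH 2.0, 50 mM acetate pH 5.5 or 50 mM phosphate pH 7.4, stirred overnight at r.t. in the dark, then 0.45 μm filtered. Filtrate quantified by UPLC-UV peak area against a 0.8 mg/mL DMSO reference.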

[2] = Log D 7.4 assay (1-octanol / phosphate buffer pH 7.4); assay type: physicochemical
Description: Phosphate buffer (1 M) was diluted to 20 mM with deionised water and adjusted to pH 7.4 (±0.05) with phosphoric acid or sodium hydroxide. A 1:1 mixture of phosphate buffer (20 mM) and 1-octanol were saturated by tumbling overnight after which time the two phases were separated. Using an automated liquid handler the following procedure was carried out: 20 mM DMSO stocks of assay and control compounds were reformatted to provide cassettes of 4 compounds per well giving a final concentration of 5 mM per compound. In duplicate 5 μL of the cassetted compounds were added to 495 μL 1-octanol (saturated with buffer) followed by 495 μL of buffer (saturated with 1-octanol) in a 96-well plate giving final incubation concentrations of 25 μM (50 μM max concentration in either layer if all compound partitioned into a single matrix). The layers were mixed by aspirating and dispensing the buffer and octanol layers into one another three times. The plate was sealed, shaken for 120 minutes and then centrifuged at 25° C. for 15 min at 4600 rpm. The 1-octanol and buffer layer were sampled separately (ensuring no cross contamination) and the respective samples diluted with 60:40 ACN:0.1 M ammonium acetate pH 7.4 (containing external standard; Sulfisoxazole, assay concentration 120 nM) to obtain final theoretical maximum concentrations of the 1-octanol layer of 0.025 μM, 0.5 μM and a buffer layer concentration of 0.5 μM. The second buffer sample was prepared by diluting the assay buffer layer with acetonitrile (containing external standard; Sulfisoxazole, assay concentration 120 nM) to give a theoretical maximum concentration of 20 μM. The analytical samples were analysed by LC-MS/MS and the Log D calculated as shown:
[formula] Where PA=Peak area and ES=External standard

[3] = biological target: T1, human ERG potassium channel (hERG) (Homo sapiens, UniProt Q12809); test: hERG channel tail current recording using in vitro Rapid ICE (automated patch-clamp, QPatch HTX); assay type: cell-based
T1 construct: expressed in transfected cells; host or cells: HEK293, stably transfected, tetracycline-inducible promoter
In short: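 Automated patch clamp on tetracycline-induced HEK293 hERG cells; pulse −80 to −50 mV 200 ms, +20 mV 4.8 s, −50 mV 5 s tail, extracellular pH 7.4. Compound at 0.3, 3, 30 μM (0.3% DMSO), 5 min exposure; tail current versus vehicle gives % inhibition and estimated IC50.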

[4] = acetate buffer 50 mM, pH 5, Table 24, read-out: Solubility (μg/mL) pH 5
[5] = acetate buffer 50 mM, pH 5.5, Table 25, read-out: Solubility (μg/mL) pH 5.5
[6] = phosphate buffer 50 mM, pH 7.4, Table 24, read-out: Solubility (μg/mL) pH 7.4

T1 sequence (Q12809 whole entry): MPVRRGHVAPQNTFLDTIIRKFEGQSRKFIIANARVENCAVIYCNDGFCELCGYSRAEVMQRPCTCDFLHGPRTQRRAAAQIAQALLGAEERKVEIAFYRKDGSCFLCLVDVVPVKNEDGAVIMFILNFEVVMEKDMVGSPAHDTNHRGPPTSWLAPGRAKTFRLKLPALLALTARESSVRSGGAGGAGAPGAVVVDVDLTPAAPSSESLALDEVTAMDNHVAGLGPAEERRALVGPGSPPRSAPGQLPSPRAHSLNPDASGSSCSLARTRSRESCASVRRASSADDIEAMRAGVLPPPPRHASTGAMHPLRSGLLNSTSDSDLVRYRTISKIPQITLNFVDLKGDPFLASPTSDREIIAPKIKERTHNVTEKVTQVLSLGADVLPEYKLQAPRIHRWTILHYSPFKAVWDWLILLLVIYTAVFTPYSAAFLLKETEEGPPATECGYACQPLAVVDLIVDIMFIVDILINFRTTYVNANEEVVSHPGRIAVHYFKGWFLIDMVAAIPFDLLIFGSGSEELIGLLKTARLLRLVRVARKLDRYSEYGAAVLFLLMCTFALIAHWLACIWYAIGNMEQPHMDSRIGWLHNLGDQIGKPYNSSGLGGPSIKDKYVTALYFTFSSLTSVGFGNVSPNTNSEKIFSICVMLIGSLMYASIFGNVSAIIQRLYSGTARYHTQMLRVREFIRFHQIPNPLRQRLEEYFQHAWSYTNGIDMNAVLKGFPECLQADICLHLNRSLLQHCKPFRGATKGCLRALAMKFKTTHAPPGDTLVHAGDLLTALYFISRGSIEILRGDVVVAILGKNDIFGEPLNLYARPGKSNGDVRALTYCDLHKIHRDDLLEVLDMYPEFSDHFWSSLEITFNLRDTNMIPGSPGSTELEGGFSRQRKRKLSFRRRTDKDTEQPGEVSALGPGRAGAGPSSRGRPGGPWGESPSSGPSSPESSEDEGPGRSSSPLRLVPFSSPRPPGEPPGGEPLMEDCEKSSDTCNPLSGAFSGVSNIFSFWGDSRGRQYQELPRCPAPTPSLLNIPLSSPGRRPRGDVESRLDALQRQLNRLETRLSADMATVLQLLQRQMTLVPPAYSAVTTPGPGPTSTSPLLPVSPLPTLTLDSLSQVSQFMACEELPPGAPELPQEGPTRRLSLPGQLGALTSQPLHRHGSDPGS

SMILES | solubility [1, 4] | solubility [1, 5] | Solubility (μg/mL) pH 2 ([1]; pH 2, Table 24) | Solubility (μg/mL) pH 2.0 ([1]; pH 2.0, Table 25) | solubility [1, 6] | logD at 120 min [2] | IC50 ([3]; Table 24) | IC50 ([3]; Table 26) | solubility ([1]; phosphate buffer 50 mM, pH 2, Table 24, read-out: Solubility (μg/mL) pH 2)
O=C(COc1ccc(Cl)c(F)c1)N[C@H]1CC[C@H](c2nnc([C@H]3C[C@@H](OC(F)(F)F)C3)o2)NC1 [Example 50, 2-(4-chloro-3-fluorophenoxy)-N-[(3S,6R)-6-{5-[(1s,3s)-3-(trifluoromethoxy)cyclobutyl]-1,3,4-oxadiazol-2-yl}piperidin-3-yl]acetamide] | 78 µg/mL (≈ 158 µM) | 78 µg/mL (≈ 158 µM) | quant.^# | quant.^# | 63 µg/mL (≈ 128 µM) | 2.7 | 1 to 5 µM | > 5 µM | –
O=C(COc1ccc(Cl)c(F)c1)N[C@H]1CC[C@H](c2nnc(COC(F)(F)F)o2)NC1 [Example 61, 2-(4-chloro-3-fluorophenoxy)-N-[(3S,6R)-6-(5-[(trifluoromethoxy)methyl]-1,3,4-oxadiazol-2-yl}piperidin-3-yl]acetamide] | 156 µg/mL (≈ 345 µM) | 156 µg/mL (≈ 345 µM) | – | – | 90 µg/mL (≈ 199 µM) | 2.3 | 1 to 5 µM | 1 to 5 µM | 907 µg/mL (≈ 2000 µM)
